Source: patent US10774113B2, “Anti-infective compound” (priority 2015, dated 2020)

Tested on: Staphylococcus aureus USA 300 (LAC)
Experiment: MIC assay
Type: cell-based
Experimental: MIC determinations and killing assays were performed in Mueller Hinton Broth (MHB; Roth, Karlsruhe, Germany).
S. aureus RN4220, S. aureus USA300 (LAC), S. aureus USA300 (NRS384), S. aureus SA113, S. aureus Mu50, E. coli DH5α and P. aeruginosa PAO1 were grown overnight in MHB. […] All strains were incubated at 37° C. under continuous shaking. Early log-phase grown bacteria were adjusted in MHB to 1×10^6 cells/well in microtiter plates (MTP), mixed with varying concentrations of the antibiotic and incubated at 37° C. for 24 h under continuous shaking. […] The assays were performed in 96-well microtiter plates.
MIC assays for the antibiotics used in this study were performed as described above. […] Fresh MHB was inoculated 1:10,000 with an overnight culture of S. aureus USA300 LAC and was incubated at 37° C. under continuous shaking. Cells were grown to early log phase, adjusted to 1×10^6 cells/mL, and dispensed into 96-well MTPs with 100 μL per well. […] After 24 h incubation at 37° C. under continuous shaking, growth was determined with a microplate reader at an OD600 and cells from the second highest concentration of 0.25×MIC, 0.5×MIC, 1×MIC, 1.5×MIC, 2×MIC and 4×MIC from the appropriate antibiotic.

For `CO[C@H]1/C=C/O[C@@]2(C)Oc3c(C)c(O)c4c(O)c(c(/C=N/N5CCN(C)CC5)c(O)c4c3C2=O)NC(=O)/C(C)=C\C=C\[C@H](C)[C@H](O)[C@@H](C)[C@@H](O)[C@@H](C)[C@H](OC(C)=O)[C@@H]1C` [rifampicin], the “1×MIC against S. aureus USA300” value was 0.01 µg/mL.
